Measured values reported in US8119621B2, “Tetrahydro-cyclopentyl pyrazole cannabinoid modulators” (Janssen Pharmaceutica N.V., priority 2005, dated 2012).
Where two headings read alike, the source gives them in different places.

How the values were obtained:
human CB1 receptor = target: T1, human CB1 receptor (Homo sapiens, UniProt P21554); assay: Binding assay for CB1 agonists or inverse agonists ([3H]-CP-55,940 displacement, SK-N-MC membranes); conditions: for inhibition at 0.2 µM: test concentration 0.2 μM (footnote 2)
T1 construct: expressed in transfected cells; host or cells: SK-N-MC cells, stably transfected with pcDNA3 CB-1 (human); semi-purified membrane pellet
Description: (§1) The human CB1 and CB2 receptors were stably expressed in SK-N-MC cells transfected with pcDNA3 CB-1 (human) or pcDNA3 CB-2 (human). The cells were grown in T-180 cell culture flasks under standard cell culture conditions at 37° C. in a 5% CO2 atmosphere. The cells were harvested by trysinization and homogenized in a homogenization buffer (10 mM Tris, 0.2 mM MgCl2, 5 mM KCl, with protease inhibitors aprotinin, leupeptin, pepstatin A and bacitracin) and centrifuged (2000 g). The supernatant was then centrifuged in 2M sucrose (31,300 g) to produce a semi-purified membrane pellet. The pellet was resuspended in homogenization and stored at −80° C.
(§2) On the day of the assay, the pellet was thawed on ice and diluted in assay buffer (50 mM Tris-HCl, 5 mM MgCl2, 2.5 mM EDTA, 0.5 mg/mL fatty acid free bovine serum albumin, pH 7.5). […] The plate was covered and incubated for 90 minutes at 30° C. The contents were then aspirated onto a Packard Unifilter GF/C filter bottom plate prewet with 0.5% polyethyleneimine. The wells of the polypropylene plate were rinsed and aspirated seven times with a 0.9% saline-0.5% Tween 20 solution. The Unifilter plate was dried, a scintillation cocktail was added to each well and the counts representing binding were quantitated in a TopCount scintillation counter.
(§3) For compounds tested, an IC50 binding value was obtained from percent inhibition studies in which various test concentrations were used. The binding value was calculated by linear regression.

human CB2 receptor = target: T2, human CB2 receptor (Homo sapiens, UniProt P34972); assay: Binding assay for CB2 agonists or inverse agonists ([3H]-CP-55,940 displacement, SK-N-MC membranes); conditions: for inhibition at 0.25 µM / inhibition at 0.2 µM: read-out: CB2 receptor binding percent inhibition; for inhibition at 0.2 µM: test concentration 0.2 μM (footnote 2)
T2 construct: expressed in transfected cells; host or cells: SK-N-MC cells, stably transfected with pcDNA3 CB-2 (human); semi-purified membrane pellet
Description: as §1, §2, §3

[1] = read-out: CB1 receptor binding percent inhibition
[2] = test concentration 0.25 μM (footnote 3), read-out: CB1 receptor binding percent inhibition
[3] = test concentration 0.25 μM (footnote 3)

T1 sequence (P21554 whole entry): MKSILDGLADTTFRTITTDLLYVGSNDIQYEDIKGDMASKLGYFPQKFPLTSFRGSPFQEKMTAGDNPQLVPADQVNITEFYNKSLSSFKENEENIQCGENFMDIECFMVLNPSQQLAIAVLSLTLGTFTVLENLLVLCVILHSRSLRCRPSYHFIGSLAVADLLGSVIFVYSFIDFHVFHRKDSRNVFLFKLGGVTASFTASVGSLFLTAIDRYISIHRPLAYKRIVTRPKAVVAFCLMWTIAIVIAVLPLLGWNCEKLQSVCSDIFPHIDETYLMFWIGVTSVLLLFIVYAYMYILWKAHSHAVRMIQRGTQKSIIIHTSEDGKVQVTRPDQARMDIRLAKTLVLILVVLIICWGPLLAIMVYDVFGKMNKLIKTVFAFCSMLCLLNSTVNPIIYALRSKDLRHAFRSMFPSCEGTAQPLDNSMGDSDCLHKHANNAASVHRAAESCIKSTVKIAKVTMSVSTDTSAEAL
T2 sequence (P34972 whole entry): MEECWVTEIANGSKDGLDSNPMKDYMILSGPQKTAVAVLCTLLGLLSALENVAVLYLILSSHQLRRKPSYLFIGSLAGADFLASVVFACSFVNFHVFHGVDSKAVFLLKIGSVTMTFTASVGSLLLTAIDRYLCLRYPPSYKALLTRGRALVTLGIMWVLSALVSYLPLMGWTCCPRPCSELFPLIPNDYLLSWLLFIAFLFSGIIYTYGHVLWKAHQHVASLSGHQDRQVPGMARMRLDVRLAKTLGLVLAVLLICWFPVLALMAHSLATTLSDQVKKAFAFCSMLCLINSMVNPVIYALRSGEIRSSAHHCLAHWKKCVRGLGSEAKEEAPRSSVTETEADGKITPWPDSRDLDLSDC

Row | Structure (SMILES) | inhibition at 0.25 µM (human CB1 receptor; [2]) [%] | inhibition at 0.25 µM (human CB2 receptor; [3]) [%] | inhibition at 0.2 µM (human CB1 receptor; [1]) [%] | inhibition at 0.2 µM (human CB2 receptor) [%] | also measured
1 | CC12CCC(C1)C(C)(C)[C@H]2NC(=O)c1nn(-c2ccc(F)cc2F)c2c1CCC2Cc1cccc(F)c1 (stereo partly drawn) [Cpd 7, 1-(2,4-difluoro-phenyl)-6-(3-fluoro-benzyl)-1,4,5,6-tetrahydro-cyclopentapyrazole-3-carboxylic acid [(2S)-1,3,3-trimethyl-bicyclo[2.2.1]hept-2-yl]-amide] | – | – | – | – | inhibition at 0.25 µM (human CB1 receptor; [1]): 60%; inhibition at 0.25 µM (human CB2 receptor): 70%
2 | C[C@@H](NS(=O)(=O)/C=C/c1nn(-c2ccc(Cl)cc2Cl)c2c1CCC2Cc1cccc(Cl)c1)C1CCCCC1 (stereo partly drawn) [Cpd 9, (2E)-2-[6-(3-chloro-benzyl)-1-(2,4-dichloro-phenyl)-1,4,5,6-tetrahydro-cyclopentapyrazol-3-yl]-ethenesulfonic acid [(1R)-1-cyclohexyl-ethyl]-amide] | 44 | 18 | – | – | –
3 | O=S(=O)(/C=C/c1nn(-c2ccc(Cl)cc2Cl)c2c1CCC2Cc1cccc(Cl)c1)NN1CCCCC1 (stereo not shown) [Cpd 10, (2E)-2-[6-(3-chloro-benzyl)-1-(2,4-dichloro-phenyl)-1,4,5,6-tetrahydro-cyclopentapyrazol-3-yl]-ethenesulfonic acid piperidin-1-ylamide] | – | – | – | – | inhibition at 1 µM (human CB1 receptor; test concentration 1 μM (footnote 1), read-out: CB1 receptor binding percent inhibition): 18%
4 | C[C@H](NS(=O)(=O)/C=C/c1nn(-c2ccc(Cl)cc2Cl)c2c1CCC2Cc1cccc(Cl)c1)c1ccccc1 (stereo partly drawn) [Cpd 11, (2E)-2-[6-(3-chloro-benzyl)-1-(2,4-dichloro-phenyl)-1,4,5,6-tetrahydro-cyclopentapyrazol-3-yl]-ethenesulfonic acid [(1S)-1-phenyl-ethyl]-amide] | 27 | – | – | – | –
5 | O=C(N[C@@H]1c2ccccc2C[C@@H]1O)c1nn(-c2ccc(F)cc2F)c2c1CCC2Cc1cccc(F)c1 (stereo partly drawn) [Cpd 12, 1-(2,4-difluoro-phenyl)-6-(3-fluoro-benzyl)-1,4,5,6-tetrahydro-cyclopentapyrazole-3-carboxylic acid [(1R,2S)-2-hydroxy-indan-1-yl]-amide] | – | – | – | – | IC50 (human CB1 receptor): 90 nM; inhibition at 0.25 µM (human CB1 receptor; [1]): 63%; CB2 receptor binding percent inhibition (human CB2 receptor; [3]): ^(3) 31%
6 | O=C(NN1CCOCC1)c1nn(-c2ccc(F)cc2F)c2c1CCC2Cc1cccc(F)c1 (stereo not shown) [Cpd 22, 1-(2,4-difluoro-phenyl)-6-(3-fluoro-benzyl)-1,4,5,6-tetrahydro-cyclopentapyrazole-3-carboxylic acid morpholin-4-ylamide] | 14 | 0 | – | – | –
7 | O=C(c1nn(-c2ccc(F)cc2F)c2c1CCC2Cc1cccc(F)c1)N1CCOCC1 (stereo not shown) [Cpd 23, [1-(2,4-difluoro-phenyl)-6-(3-fluoro-benzyl)-1,4,5,6-tetrahydro-cyclopentapyrazol-3-yl]-morpholin-4-yl-methanone] | 0 | 0 | – | – | –
8 | O=C(N[C@H](CO)c1ccccc1)c1nn(-c2ccc(F)cc2F)c2c1CCC2Cc1cccc(F)c1 (stereo partly drawn) [Cpd 24, 1-(2,4-difluoro-phenyl)-6-(3-fluoro-benzyl)-1,4,5,6-tetrahydro-cyclopentapyrazole-3-carboxylic acid [(1S)-2-hydroxy-1-phenyl-ethyl]-amide] | – | – | 0 | 0 | –
9 | O=C(N[C@@H](CO)Cc1ccccc1)c1nn(-c2ccc(F)cc2F)c2c1CCC2Cc1cccc(F)c1 (stereo partly drawn) [Cpd 25, 1-(2,4-difluoro-phenyl)-6-(3-fluoro-benzyl)-1,4,5,6-tetrahydro-cyclopentapyrazole-3-carboxylic acid [(1R)-1-benzyl-2-hydroxy-ethyl]-amide] | – | – | 23 | 31 | –
10 | O=C(N[C@@H](CCl)c1ccccc1)c1nn(-c2ccc(F)cc2F)c2c1CCC2Cc1cccc(F)c1 (stereo partly drawn) [Cpd 26, 1-(2,4-difluoro-phenyl)-6-(3-fluoro-benzyl)-1,4,5,6-tetrahydro-cyclopentapyrazole-3-carboxylic acid [(1R)-2-chloro-1-phenyl-ethyl]-amide] | – | – | 24 | 32 | –
